Data as given in article PMC8036666, “Biological and Physico-Chemical Characteristics of Arginine-Rich Peptide Gemini Surfactants with Lysine and Cystine Spacers” (International Journal of Molecular Sciences, 2021).
≈ marks a conversion by molar mass, not a printed value. Where two headings read alike, the source gives them in different places. Marks after values point to notes of the source that are not given here. Where a SMILES comes first, the peptide text is derived from it. Bridges are numbered along the chain shown (N, C = ends). Roman numbers before positions name the chains, in order. Side-chain parts run from the residue outwards. The star is where a group is joined. Myristoyl = CCCCCCCCCCCCCC(=O)*; Lauroyl = CCCCCCCCCCCC(=O)*; Decanoyl = CCCCCCCCCC(=O)*; Octanoyl = CCCCCCCC(=O)*

What was measured:
[1] = system: human red blood cells (hRBCs); settings: cited from earlier work
S. aureus ATCC 33591 = type: cell-based, Staphylococcus aureus
Protocol: (§1) Minimal inhibitory concentrations of lipopeptides were determined in the presence of human serum to evaluate the effect of enzymatic degradation and protein binding of lipopeptides on antimicrobial activity. Serum concentrations were 1% and 10% (v/v). S. aureus (ATCC 33591), P. aeruginosa (ATCC 9027), and C. glabrata (ATCC 15126) were selected to this study.
(§2) The MICs were determined by the broth microdilution method according to the Clinical and Laboratory Standard Institute guidelines. For this purpose, initial inoculums of bacteria (5 × 10^5 CFU/mL) in MHB and yeasts (2 × 10^3 CFU/mL) in RPMI-1640 with 2% D-glucose were exposed to the ranging concentration of lipopeptides (0.5–256 μg/mL) and incubated at 37 °C for 18 h and 24 h, respectively. The experiments were conducted on 96-well microtiter polystyrene plates (Kartell, Noviglio, Italy). The growth was assessed visually after incubation, and the MIC was assumed as the lowest peptide concentration at which a noticeable growth of microorganisms was inhibited. All experiments were conducted in triplicate.
(§3) The MICs were determined in the presence of normal human serum (NHS; Sigma-Aldrich, Human Serum, Normal) in concentrations of 1 and 10% (v/v). NHS was stored frozen at −20 °C and thawed just before use. Microorganisms were cultivated as described in 3.4.1. Serial dilutions of compounds, inoculum density, medium, and incubation conditions were prepared as described in Section 3.4.2. Stock solutions of test compounds were prepared in appropriate culture medium.

[2] = system: E. coli ML-35 (ATCC 43827)
From the text: (§4) The permeabilization of E. coli ML-35 (ATCC 43827) membranes was studied for selected compounds (A4, B2, C2, B7, and C7) to compare their activity and membrane disruption over time. […] For OM and IM permeabilization, CENTA and ONPG were used, respectively. The permeabilization of OM causes the release of periplasmic β-lactamase, which hydrolyzes CENTA’s β-lactam ring to form a chromophore, 2-nitro-5-thiobenzoate (TNB) anion, while the disruption of IM results in the release of β-galactosidase, which hydrolyzes ONPG into galactose and a chromophore, ortho-nitrophenol (ONP). Both products of enzymatic reaction absorb light at 405 nm.
as §2
Inner and outer membranes permeabilization kinetics were evaluated using Escherichia coli ML-35 (ATCC 43827) and chromogenic substrates—CENTA (BioVision, Milpitas, CA, USA) and o-nitrophenyl-β-d-galactopyranoside (ONPG) (Sigma-Aldrich, Steinheim, Germany), as described previously. To examine OM permeabilization, CENTA was used as a β-lactamase substrate. In effect of OM permeabilization, the enzyme can hydrolyze CENTA’s β-lactam ring. The resulting color change (2-nitro-5-thiobenzoate anion, TNB^-) could be measured spectrophotometrically at 405 nm. The IM permeabilization was monitored with ONPG, which is a chromogenic β-galactosidase substrate. The product of this reaction ([…]) was measured spectrophotometrically at 405 nm (Multiskan GO Microplate Spectrophotometer, Thermo Fisher Scientific, Vantaa, Finland). […] Bacteria were incubated in lysogeny broth medium (LB; Biocorp, Warszawa, Poland) for 24 h at 37 °C. Subsequently, the cells were diluted in a fresh LB medium and incubated at 37 °C up to a mid-log phase (ca. 3 h). The culture was centrifuged (3 min, 1100× g) and rinsed twice with a PBS. The bacteria were resuspended in PBS up to a concentration of 5 × 10^6 CFU/mL. The final concentration of ONPG and CENTA was 1.5 mM and 0.15 mM, respectively. The ONPG/CENTA in PBS (Sigma-Aldrich, Steinheim, Germany) was used as a negative control. […] Readings were taken every 15 min for 3 h at 37 °C [125, 142, 143, 144]. Experiments were performed in triplicate on 96-well flat bottom microtiter polystyrene plates.

P. aeruginosa ATCC 9027 = type: cell-based, Pseudomonas aeruginosa
Protocol: as §1, §2, §3

C. glabrata ATCC 15126 = type: cell-based, Candida glabrata
Protocol: as §1, §2, §3

[3] = system: E. coli ML-35 (ATCC 43827); test: Inner membrane (IM) permeabilization kinetics, ONPG; type: cell-based, Escherichia coli; settings: for ti (t2), incubation time at the intersection of two tangents, IM permeabilization: 32 µg/mL; for ti (t1), incubation time at the intersection of two tangents, IM permeabilization: 64 µg/mL
From the text: as §4
Inner and outer membranes permeabilization kinetics were evaluated using Escherichia coli ML-35 (ATCC 43827) and chromogenic substrates—CENTA (BioVision, Milpitas, CA, USA) and o-nitrophenyl-β-d-galactopyranoside (ONPG) (Sigma-Aldrich, Steinheim, Germany), as described previously. To examine OM permeabilization, CENTA was used as a β-lactamase substrate. In effect of OM permeabilization, the enzyme can hydrolyze CENTA’s β-lactam ring.

Structure (SMILES)	MIC S. aureus ATCC 33591 (S. aureus ATCC 33591; human serum 10% (v/v))	MIC E. coli ML-35 (ATCC 43827) [2]	MIC P. aeruginosa ATCC 9027 (P. aeruginosa ATCC 9027; human serum 10% (v/v))	MIC C. glabrata ATCC 15126 (C. glabrata ATCC 15126; human serum 10% (v/v))	further results
CCCCCCCC(=O)N[C@@H](CCCNC(=N)N)C(=O)N[C@@H](CCCNC(=N)N)C(N)=O [Compound A1, C8-RR-NH2] (Octanoyl-Arg-Arg-NH2)					HC50 [1]: >256 * µg/mL
CCCCCCCCCC(=O)N[C@@H](CCCNC(=N)N)C(=O)N[C@@H](CCCNC(=N)N)C(N)=O [Compound A2, C10-RR-NH2] (Decanoyl-Arg-Arg-NH2)					HC50 [1]: >256 * µg/mL
CCCCCCCCCCCC(=O)N[C@@H](CCCNC(=N)N)C(=O)N[C@@H](CCCNC(=N)N)C(N)=O [Compound A3, C12-RR-NH2] (Lauroyl-Arg-Arg-NH2)					HC50 [1]: >256 * µg/mL
CCCCCCCCCCCCCC(=O)N[C@@H](CCCNC(=N)N)C(=O)N[C@@H](CCCNC(=N)N)C(N)=O [Compound A4, C14-RR-NH2] (Myristoyl-Arg-Arg-NH2)	64 µg/mL (≈ 119 µM)	32 µg/mL (≈ 59.3 µM)	256 µg/mL (≈ 474 µM)	256 µg/mL (≈ 474 µM)	ti (t2), incubation time at the intersection of two tangents, IM permeabilization [3]: 77.6 min; ti (t1), incubation time at the intersection of two tangents, IM permeabilization [3]: 39.0 min
CCCCCCCCCC(=O)N[C@@H](CCCNC(=N)N)C(=O)N[C@@H](CCCNC(=N)N)C(=O)NCCCC[C@H](NC(=O)[C@H](CCCNC(=N)N)NC(=O)[C@H](CCCNC(=N)N)NC(=O)CCCCCCCCC)C(N)=O [Compound B2] (Decanoyl-Arg-Arg-Lys([Arg-Arg-Decanoyl])-NH2)		32 µg/mL (≈ 29.7 µM)			
CCCCCCCCCCCC(=O)N[C@@H](CCCNC(=N)N)C(=O)N[C@@H](CCCNC(=N)N)C(=O)NCCCC[C@H](NC(=O)[C@H](CCCNC(=N)N)NC(=O)[C@H](CCCNC(=N)N)NC(=O)CCCCCCCCCCC)C(N)=O [Compound B3] (Lauroyl-Arg-Arg-Lys([Arg-Arg-Lauroyl])-NH2)	16 µg/mL (≈ 14.1 µM)		64 µg/mL (≈ 56.4 µM)	> 256 µg/mL	
CCCCCCC(CCCC)C(=O)N[C@@H](CCCNC(=N)N)C(=O)N[C@@H](CCCNC(=N)N)C(=O)NCCCC[C@H](NC(=O)[C@H](CCCNC(=N)N)NC(=O)[C@H](CCCNC(=N)N)NC(=O)C(CCCC)CCCCCC)C(N)=O (some centres unmarked) [Compound B7]	8 µg/mL (≈ 7.05 µM)	32 µg/mL (≈ 28.2 µM)	128 µg/mL (≈ 113 µM)	64 µg/mL (≈ 56.4 µM)	
CCCCCCCCCC(=O)N[C@@H](CCCNC(=N)N)C(=O)N[C@@H](CCCNC(=N)N)C(=O)N[C@@H](CSSC[C@H](NC(=O)[C@H](CCCNC(=N)N)NC(=O)[C@H](CCCNC(=N)N)NC(=O)CCCCCCCCC)C(N)=O)C(N)=O [Compound C2] (I: Decanoyl-Arg-Arg-Cys-NH2 / II: Decanoyl-Arg-Arg-Cys-NH2; disulfide I:3-II:3)		32 µg/mL (≈ 27.3 µM)			ti (t2), incubation time at the intersection of two tangents, IM permeabilization [3]: 45.7 min; ti (t1), incubation time at the intersection of two tangents, IM permeabilization [3]: 42.0 min
CCCCCCCCCCCC(=O)N[C@@H](CCCNC(=N)N)C(=O)N[C@@H](CCCNC(=N)N)C(=O)N[C@@H](CSSC[C@H](NC(=O)[C@H](CCCNC(=N)N)NC(=O)[C@H](CCCNC(=N)N)NC(=O)CCCCCCCCCCC)C(N)=O)C(N)=O [Compound C3] (I: Lauroyl-Arg-Arg-Cys-NH2 / II: Lauroyl-Arg-Arg-Cys-NH2; disulfide I:3-II:3)	32 µg/mL (≈ 26.1 µM)		256 µg/mL (≈ 209 µM)	> 256 µg/mL	
CCCCCCCC(=O)N[C@@H](Cc1ccccc1)C(=O)N[C@@H](CCCNC(=N)N)C(=O)N[C@@H](CCCNC(=N)N)C(=O)N[C@@H](CSSC[C@H](NC(=O)[C@H](CCCNC(=N)N)NC(=O)[C@H](CCCNC(=N)N)NC(=O)[C@H](Cc1ccccc1)NC(=O)CCCCCCC)C(N)=O)C(N)=O [Compound C5] (I: Octanoyl-FRRC-NH2 / II: Octanoyl-FRRC-NH2; disulfide I:4-II:4)	256 µg/mL (≈ 182 µM)		>256 µg/mL	>256 µg/mL	MIC S. aureus ATCC 33591 (S. aureus ATCC 33591; human serum 0% (v/v)): 2 µg/mL (≈ 1.42 µM); MIC S. aureus ATCC 33591 (S. aureus ATCC 33591; human serum 1% (v/v)): 64 µg/mL (≈ 45.4 µM); MIC P. aeruginosa ATCC 9027 (P. aeruginosa ATCC 9027; human serum 0% (v/v)): 8 µg/mL (≈ 5.67 µM); MIC P. aeruginosa ATCC 9027 (P. aeruginosa ATCC 9027; human serum 1% (v/v)): 128 µg/mL (≈ 90.8 µM); MIC C. glabrata ATCC 15126 (C. glabrata ATCC 15126; human serum 0% (v/v)): 8 µg/mL (≈ 5.67 µM); MIC C. glabrata ATCC 15126 (C. glabrata ATCC 15126; human serum 1% (v/v)): 128 µg/mL (≈ 90.8 µM)
CCCCCCC(CCCC)C(=O)N[C@@H](CCCNC(=N)N)C(=O)N[C@@H](CCCNC(=N)N)C(=O)N[C@@H](CSSC[C@H](NC(=O)[C@H](CCCNC(=N)N)NC(=O)[C@H](CCCNC(=N)N)NC(=O)C(CCCC)CCCCCC)C(N)=O)C(N)=O (some centres unmarked) [Compound C7]	64 µg/mL (≈ 52.1 µM)	64 µg/mL (≈ 52.1 µM)	256 µg/mL (≈ 209 µM)	256 µg/mL (≈ 209 µM)	ti (t2), incubation time at the intersection of two tangents, IM permeabilization [3]: 68.6 min; ti (t1), incubation time at the intersection of two tangents, IM permeabilization [3]: 43.9 min
